Drawing on patent US7399775B2, “β-amyloid protein production/secretion inhibitor” (Daiichi Pharmaceutical Co., Ltd., priority 2001, dated 2008), this text covers melting point for 40 compounds.

The structures appear in SMILES notation.

With `CCNC(=O)N1CCC(c2cc(F)ccc2F)(S(=O)(=O)c2ccc(Cl)cc2)CC1` [Example 272, N-ethyl-4-[(4-chlorophenyl)sulfonyl]-4-(2,5-difluorophenyl)-1-piperidinecarboxamide], the melting point (usually the temperature of the solid-liquid transition) was 172 to 174 °C. The same measure for `O=S(=O)(c1ccc(Cl)cc1)C(CCCCCCO)c1cc(F)ccc1F` (stereo not shown) [Example 274, 7-[(4-Chlorophenyl)sulfonyl]-7-(2,5-difluorophenyl)-1-heptanol]: 77 to 79 °C; for `O=S(=O)(c1ccc(Cl)cc1)C1(c2cc(F)ccc2F)CCCCCC1` [Example 275]: 101 to 103 °C; for `O=S(=O)(c1ccc(Cl)cc1)C(Cc1ccccc1CO)c1cc(F)ccc1F` (stereo not shown) [Example 277, [2-[2-[(4-Chlorophenyl)sulfonyl]-2-(2,5-difluorophenyl)ethyl]phenyl]methanol]: 107 to 108 °C. As for `O=S(=O)(c1ccc(Cl)cc1)C1(c2cc(F)ccc2F)Cc2ccccc2C1` [Example 278, 2-[(4-Chlorophenyl)sulfonyl]-2-(2,5-difluorophenyl)indane], the figure is 209 to 210 °C (dec.); as for `CC1CCCC1(c1cc(F)ccc1F)S(=O)(=O)c1ccc(Cl)cc1` (stereo not shown) [Example 279, 2-[1-[(4-Chlorophenyl)sulfonyl]-2-methylcyclopentyl]-1,4-difluorobenzene], 105 to 109 °C; as for `O=S(=O)(c1ccc(Cl)cc1)C1(c2ccccc2CO)CCCCC1` [Example 286, [2-[1-[(4-Chlorophenyl)sulfonyl]cyclohexyl]phenyl]methanol], 148 to 150 °C (dec.). The same measure for `CC(C)(C)OC(=O)N1CCC(C(c2cc(F)ccc2F)S(=O)(=O)c2ccc(Cl)cc2)CC1` (stereo not shown) [Example 290, t-Butyl 4-[[(4-chlorophenyl)sulfonyl](2,5-difluorophenyl)methyl]-1-piperidinecarboxylate]: 193 to 196 °C; for `O=S(=O)(c1ccc(Cl)cc1)C(Cc1cccs1)c1cc(F)ccc1F` (stereo not shown) [Example 295, 2-[2-[(4-Chlorophenyl)sulfonyl]-2-(2,5-difluorophenyl)ethyl]thiophene]: 127 to 130 °C. The compound `O=S(=O)(c1ccc(Cl)cc1)C(Cc1ccco1)c1cc(F)ccc1F` (stereo not shown) [Example 296, 2-[2-[(4-Chlorophenyl)sulfonyl]-2-(2,5-difluorophenyl)ethyl]furan] came in with a melting point of 90 to 93 °C. The compound `O=S(=O)(c1ccc(Cl)cc1)C(CCn1cccc1)c1cc(F)ccc1F` (stereo not shown) [Example 297, 1-[3-[(4-Chlorophenyl)sulfonyl]-3-(2,5-difluorophenyl)propyl]-1H-pyrrole] had a melting point of 108 to 113 °C. As for `O=S(=O)(c1ccc(Cl)cc1)C(CCN1CCOCC1)c1cc(F)ccc1F` (stereo not shown) [Example 298, 4-[3-[(4-Chlorophenyl)sulfonyl]-3-(2,5-difluorophenyl)propyl]morpholine], the figure is 149 to 151 °C; as for `O=S(=O)(c1ccc(Cl)cc1)C(CCc1ccccc1)c1cc(F)ccc1F` (stereo not shown) [Example 304, 2-[1-(4-Chlorophenylsulfonyl)-3-phenylpropyl]-1,4-difluorobenzene], 111 to 113 °C.

The compound `Cc1ccccc1CCC(c1cc(F)ccc1F)S(=O)(=O)c1ccc(Cl)cc1` (stereo not shown) [Example 305, 2-[1-(4-Chlorophenylsulfonyl)-3-(2-methylphenyl)propyl]-1,4-difluorobenzene] returned a melting point of 105 to 106 °C.

`Cc1cccc(CCC(c2cc(F)ccc2F)S(=O)(=O)c2ccc(Cl)cc2)c1` (stereo not shown) [Example 306, 2-[1-(4-Chlorophenylsulfonyl)-3-(3-methylphenyl)propyl]-1,4-difluorobenzene] showed a melting point of 87 to 88 °C.

Take `Cc1ccc(CCC(c2cc(F)ccc2F)S(=O)(=O)c2ccc(Cl)cc2)cc1` (stereo not shown) [Example 307, 2-[1-(4-Chlorophenylsulfonyl)-3-(4-methylphenyl)propyl]-1,4-difluorobenzene]: the melting point lay in the range of 82 to 84 °C. The same measure for `COc1ccc(CCC(c2cc(F)ccc2F)S(=O)(=O)c2ccc(Cl)cc2)cc1` (stereo not shown) [Example 308, 2-[1-(4-Chlorophenylsulfonyl)-3-(4-methoxyphenyl)propyl]-1,4-difluorobenzene]: 118 to 120 °C; for `O=S(=O)(c1ccc(Cl)cc1)C(CCc1ccc(F)cc1)c1cc(F)ccc1F` (stereo not shown) [Example 309, 2-[1-(4-Chlorophenylsulfonyl)-3-(4-fluorophenyl)propyl]-1,4-difluorobenzene]: 131 to 132 °C; for `O=S(=O)(c1ccc(Cl)cc1)C(CCc1ccc(Cl)cc1)c1cc(F)ccc1F` (stereo not shown) [Example 310, 2-[3-(4-Chlorophenyl)-1-(4-chlorophenylsulfonyl)propyl]-1,4-difluorobenzene]: 124 to 126 °C. As for `O=S(=O)(c1ccc(Cl)cc1)C(CCc1ccc(Br)cc1)c1cc(F)ccc1F` (stereo not shown) [Example 311, 2-[3-(4-Bromophenyl)-1-(4-chlorophenylsulfonyl)propyl]-1,4-difluorobenzene], the melting point was in the range of 122 to 124 °C.

As to `O=S(=O)(c1ccc(Cl)cc1)C(CCCc1ccccc1)c1cc(F)ccc1F` (stereo not shown) [Example 312, 2-[1-(4-Chlorophenylsulfonyl)-4-phenylbutyl]-1,4-difluorobenzene], the melting point is 107 to 108 °C.

In the case of `O=S(=O)(c1ccc(Cl)cc1)C(CCCCc1ccccc1)c1cc(F)ccc1F` (stereo not shown) [Example 313, 2-[1-(4-Chlorophenylsulfonyl)-5-phenylpentyl]-1,4-difluorobenzene], the melting point was in the range of 88 to 90 °C.

The compound `O=S(=O)(c1ccc(Cl)cc1)C(Cc1ccc(F)cc1)c1cc(F)ccc1F` (stereo not shown) [Example 314, 2-[1-(4-Chlorophenylsulfonyl)-2-(4-fluorophenyl)ethyl]-1,4-difluorobenzene] gave a melting point of 151 to 153 °C.

`O=S(=O)(c1ccc(Cl)cc1)C(CCC1CCCC1)c1cc(F)ccc1F` (stereo not shown) [Example 315, 2-[1-(4-Chlorophenylsulfonyl)-3-cyclopentylpropyl]-1,4-difluorobenzene] gave a melting point of 93 to 94 °C.

In the case of `O=S(=O)(c1ccc(Cl)cc1)C(CCC1CCCCC1)c1cc(F)ccc1F` (stereo not shown) [Example 316, 2-[1-(4-Chlorophenylsulfonyl)-3-cyclohexylpropyl]-1,4-difluorobenzene], the melting point was 82 to 83 °C. For the compound `O=S(=O)(c1ccc(Cl)cc1)C(CCCC1CCCCC1)c1cc(F)ccc1F` (stereo not shown) [Example 317, 2-[1-(4-Chlorophenylsulfonyl)-4-cyclohexylbutyl]-1,4-difluorobenzene], the melting point lay within 47 to 49 °C.

`O=S(=O)(c1ccc(Cl)cc1)C(CCc1ccccn1)c1cc(F)ccc1F` (stereo not shown) [Example 318, 2-[3-(4-chlorophenylsulfonyl)-3-(2,5-difluorophenyl)propyl]pyridine] gave a melting point of 129 to 131 °C.

Turning to `Cc1ncsc1CCC(c1cc(F)ccc1F)S(=O)(=O)c1ccc(Cl)cc1` (stereo not shown) [Example 319, 5-[3-(4-Chlorophenylsulfonyl)-3-(2,5-difluorophenyl)propyl]-4-methyl-1,3-thiazole], the melting point lay within 183 to 184 °C.

`O=S(=O)(c1ccc(Cl)cc1)C(CCN1CCCCC1)c1cc(F)ccc1F` (stereo not shown) [Example 320, 1-[3-(4-Chlorophenylsulfonyl)-3-(2,5-difluorophenyl)propyl]piperidine] came in with a melting point of 106 to 107 °C. Compound `CC1(C)COC(CCC(c2cc(F)ccc2F)S(=O)(=O)c2ccc(Cl)cc2)OC1` (stereo not shown) [Example 321, 2-[3-(4-Chlorophenylsulfonyl)-3-(2,5-difluorophenyl)propyl]-5,5-dimethyl-1,3-dioxane] gave a melting point of 69 to 71 °C. Compound `CCCCCC(c1cc(F)ccc1F)S(=O)(=O)c1ccc(Cl)cc1` (stereo not shown) [Example 322, 2-[1-(4-Chlorophenylsulfonyl)hexyl]-1,4-difluorobenzene] had a melting point of 68 to 69 °C.

The compound `CCCCCCC(c1cc(F)ccc1F)S(=O)(=O)c1ccc(Cl)cc1` (stereo not shown) [Example 323, 2-[1-(4-Chlorophenylsulfonyl)heptyl]-1,4-difluorobenzene] had a melting point of 77 to 78 °C. The same measure for `CCCCCCCC(c1cc(F)ccc1F)S(=O)(=O)c1ccc(Cl)cc1` (stereo not shown) [Example 324, 2-[1-(4-chlorophenylsulfonyl)octyl]-1,4-difluorobenzene]: 47 to 48 °C. `CC(C)CCCC(c1cc(F)ccc1F)S(=O)(=O)c1ccc(Cl)cc1` (stereo not shown) [Example 325, 2-[1-(4-Chlorophenylsulfonyl)-5-methylhexyl]-1,4-difluorobenzene] returned a melting point of 79 to 80 °C. As for `CCC(C)CCC(c1cc(F)ccc1F)S(=O)(=O)c1ccc(Cl)cc1` (stereo not shown) [Example 326, 2-[1-(4-Chlorophenylsulfonyl)-4-methylhexyl]-1,4-difluorobenzene], the figure is 56 to 58 °C.

Compound `O=S(=O)(Cc1ccc(C(c2cc(F)ccc2F)S(=O)(=O)c2ccc(Cl)cc2)nc1)c1ccc(Cl)cc1` (stereo not shown) [Example 328, 2-[(4-Chlorophenylsulfonyl)-(2,5-difluorophenyl)methyl]-5-[(4-chlorophenylsulfonyl)methyl]pyridine] registered a melting point of 186 to 187 °C. The same measure for `Fc1ccc(F)c(C(Sc2ccc(Cl)cc2)c2ccc(C3OCCO3)cn2)c1` (stereo not shown) [Example 329, 2-[(4-Chlorophenylthio)-(2,5-difluorophenyl)methyl]-5-(1,3-dioxolan-2-yl)pyridine]: 70 to 73 °C; for `COC(=O)/C=C/c1ccc(C(c2cc(F)ccc2F)S(=O)(=O)c2ccc(Cl)cc2)nc1` (stereo not shown) [Example 332, Methyl 3-[6-[(4-chlorophenylsulfonyl)-(2,5-difluorophenyl)methyl]pyridin-3-yl]acrylate]: 145 to 146 °C; for `COC(=O)CCc1ccc(C(c2cc(F)ccc2F)S(=O)(=O)c2ccc(Cl)cc2)nc1` (stereo not shown) [Example 333, Methyl 3-[6-[(4-chlorophenylsulfonyl)-(2,5-difluorophenyl)methyl]pyridin-3-yl]propionate]: 121 to 123 °C. The same measure for `O=S(=O)(c1ccc(Cl)cc1)C(c1ccc(CN2CCCCC2)cn1)c1cc(F)ccc1F` (stereo not shown) [Example 336, 2-[(4-Chlorophenylsulfonyl)-(2,5-difluorophenyl)methyl]-5-(piperidin-1-ylmethyl)pyridine]: 113 to 114 °C.
